Reference: patent US11332473B2, “Substituted pyrazolo[3,4-d]pyrimidines as Wee1 inhibitors” (NUVATION BIO INC., priority 2019, dated 2022)

Key:
[1] = system: phospho-CDC2 in A427 cells; test: Phospho-CDC2 (Tyr15) sandwich ELISA in A427 cells; assay type: cell-based; conditions: Homo sapiens, A-427
Protocol: (§1) Changes in the levels of phospho-CDC2 following treatment of cells with test compounds were assessed by enzyme-linked immunosorbent assay (ELISA). A427 cells or AsPC-1 cells were plated in 6-well plates and cultured for 24 hr to approximately 80-90% confluency. Medium was replaced, and the cells were treated with the vehicle control or the test compound at several different concentrations. After incubation of treated cells in cell culture conditions for a specified time (e.g., 24 hr), cells were rinsed with ice-cold PBS and lysed in 1× cell lysis buffer containing protease inhibitors and phosphatase inhibitors. The cells were scraped from the plate with a cell scraper after a brief incubation on ice and transferred to a centrifuge tube, and then subjected to three freeze-thaw cycles in liquid nitrogen and a 37° C. water bath for further lysis. The lysates were centrifuged to pellet cell debris (using, for example, a 10 min centrifugation of 2000× g at 4° C.) and the supernatants transferred to fresh tubes on ice. The protein concentrations of the samples were estimated by the Bradford method or equivalent. The ELISA was carried out with the PathScan® Phospho-CDC2 (Tyr15) Sandwich ELISA Kit (Cat. #7176, Cell Signaling Technology, Danvers, Mass.) according to the manufacturer's instructions.

[2] = system: A427 cells; test: Cytotoxicity assay in A427 cell line (resazurin); assay type: cell-based; conditions: Homo sapiens, A-427; A427 lung epithelial cell line, 72 hr, inhibition of proliferation
Protocol: A427 (HTB-53; ATCC), a lung epithelial cell line, was seeded in medium (MEM, 41090101; Gibco) at a cell count of 1500 cells per 100 μL per well in a 96 well edge plate (167425; ThermoFisher). Cells were allowed to grow at 37° C. for 24 hr in 5% CO2 environment (culture conditions) in a Nuaire incubator (humidified). Serially diluted test compounds (100 μL) within the desired testing concentration ranges were added to the culture plate and the cells were further incubated in culture conditions for 72 hr. The experiment was terminated at the designated incubation time by replacing the medium with 100 μL of 1 mM of resazurin (R7017; Sigma) prepared in culture medium, and the plates were further incubated in culture conditions for 4-6 hr. Fluorescence was recorded using a multimodal plate reader (Biotek Synergy Neo) at an excitation wavelength of 535 nm and emission wavelength of 590 nm to obtain relative fluorescence units. Data were analysed as follows: the background fluorescence (blank containing only medium) value was subtracted from each reading and normalized with the vehicle control (DMSO treated cells) to obtain percent survival/proliferation. Percent survival was subtracted from 100 to get the percent inhibition of proliferation which was used to calculate IC50 values. Potency of compounds in other cell lines (such as A549, AsPc-1, Panc 10.05, A172, U-87MG) may be determined in an analogous manner.

[3] = molecular target: WEE1 kinase enzyme (Homo sapiens (Human), UniProt P30291); test: WEE1 IC50 determination, LanthaScreen Terbium Labeled TR-FRET kinase assay; assay type: biochemical; conditions: WEE1 enzyme 1 nM, ATP 10 μM
Sequence of WEE1 kinase enzyme (P30291 whole entry): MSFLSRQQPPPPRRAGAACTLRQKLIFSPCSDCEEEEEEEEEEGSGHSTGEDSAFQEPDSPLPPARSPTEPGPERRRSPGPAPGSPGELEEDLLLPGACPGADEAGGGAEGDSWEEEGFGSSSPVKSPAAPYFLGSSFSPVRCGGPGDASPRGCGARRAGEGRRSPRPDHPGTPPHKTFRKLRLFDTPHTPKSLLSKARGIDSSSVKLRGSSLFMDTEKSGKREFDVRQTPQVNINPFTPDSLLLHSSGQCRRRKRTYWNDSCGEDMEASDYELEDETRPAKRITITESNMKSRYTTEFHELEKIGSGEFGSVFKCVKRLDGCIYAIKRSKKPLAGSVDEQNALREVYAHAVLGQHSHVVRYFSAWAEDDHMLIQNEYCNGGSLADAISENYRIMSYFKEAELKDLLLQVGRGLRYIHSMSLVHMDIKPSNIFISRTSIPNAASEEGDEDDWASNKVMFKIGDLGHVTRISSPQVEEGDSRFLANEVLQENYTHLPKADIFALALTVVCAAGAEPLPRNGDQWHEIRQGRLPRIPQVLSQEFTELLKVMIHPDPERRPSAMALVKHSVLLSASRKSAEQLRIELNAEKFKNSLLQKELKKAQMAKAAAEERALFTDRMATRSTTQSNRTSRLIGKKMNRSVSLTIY
Protocol: IC50 values of compounds against WEE1 kinase enzyme were determined by LanthaScreen™ Terbium Labeled TR-FRET assay. Kinase assays were performed in 1X kinase buffer (#PV6135, Invitrogen, Life Technologies Grand Island, N.Y.) where total reaction volume was 10 μL in low-volume 384-well plates (#4511, Corning). Serially diluted compounds (3-fold) were incubated with WEE1 Enzyme (1 nM) (#PR7373A, Invitrogen, Life Technologies, Grand Island, N.Y.) for 10 min; a mixture of ATP (10 μM) (#A1852, Sigma, St. Louis, Mo.) and fluorescent-PolyGT substrate (200 nM) (#PV3610, Invitrogen, Life Technologies Grand Island, N.Y.) was added and incubated in dark at room temperature for 1 h. After 1 h, 10 μL stop solution containing Terbium labeled antibody (4 nM) (#PV3529, Invitrogen, Life Technologies Grand Island, N.Y.) and EDTA (#E5134, Sigma, St. Louis, Mo.) (20 mM) in TR-FRET dilution buffer (#PV3574, Invitrogen, Life Technologies Grand Island, N.Y.) was added. Readings were taken in a Synergy Neo Plate reader (BioTek, Winooski, Vt.) at single excitation of 340 nm and dual emission at 495 nm and 520 nm respectively.
The % activity of test samples was calculated as (Sample−Min)*100/(Max−Min). [Max: DMSO control, complete reaction with enzyme & DMSO and Min: No enzyme & DMSO].

[4] = molecular target: PKMYT1 kinase (Homo sapiens (Human), UniProt Q99640); test: PKMYT1 IC50 determination, HotSpot Kinase Assay; assay type: biochemical; conditions: 10 μM ATP, 33P-ATP, Myelin Basic Protein substrate
Sequence of PKMYT1 kinase (Q99640 whole entry): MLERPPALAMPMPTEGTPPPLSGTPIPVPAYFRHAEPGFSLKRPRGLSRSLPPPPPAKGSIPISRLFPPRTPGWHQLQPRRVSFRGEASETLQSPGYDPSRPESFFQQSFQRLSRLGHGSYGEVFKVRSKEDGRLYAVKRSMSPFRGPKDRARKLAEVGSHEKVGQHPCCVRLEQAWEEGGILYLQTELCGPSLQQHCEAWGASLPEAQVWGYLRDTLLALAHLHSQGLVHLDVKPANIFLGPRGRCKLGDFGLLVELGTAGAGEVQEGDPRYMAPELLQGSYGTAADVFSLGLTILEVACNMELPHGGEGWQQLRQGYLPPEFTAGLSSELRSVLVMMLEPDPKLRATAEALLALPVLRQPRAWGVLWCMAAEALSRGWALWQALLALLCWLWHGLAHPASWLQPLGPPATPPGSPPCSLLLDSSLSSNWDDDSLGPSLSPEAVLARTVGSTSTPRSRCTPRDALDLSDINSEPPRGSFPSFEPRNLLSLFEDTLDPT
Protocol: Inhibition of PKMYT1 kinase activity by test compounds was measured by the HotSpot Kinase Assay at Reaction Biology Corporation (Malvern, Pa.). Briefly, Myelin Basic Protein substrate was prepared in Reaction Buffer (20 mM Hepes (pH 7.5), 10 mM MgCl2, 1 mM EGTA, 0.01% Brij35, 0.02 mg/mL BSA, 0.1 mM Na3VO4, 2 mM DTT, 1% DMSO). PKMYT1 kinase was delivered into the substrate solution and gently mixed. Test compounds in 100% DMSO were added into the kinase reaction mixture by Acoustic technology (Echo550; nanoliter range) and incubated for 20 min at room temperature. ^33P-ATP was delivered into the reaction mixture to initiate the reaction. Reactions were carried out at 10 μM ATP. After a 2 hour incubation at room temperature, kinase activity was detected by P81 filter-binding method. […] A nonlinear regression model with a sigmoidal dose response and variable slope within GraphPad Prism (GraphPad Software, San Diego, Calif.) was used to calculate the IC50 value of individual test compounds.

[5] = system: phospho-CDC2 in AsPC-1 cells; test: Phospho-CDC2 (Tyr15) sandwich ELISA in AsPC-1 cells; assay type: cell-based; conditions: Homo sapiens, ASPC1
Protocol: as §1

Row | Structure (SMILES) | IC50 [1] | IC50 [3] | IC50 [4] | IC50 [5] | IC50 [2]
1 | CC(C)n1c(=O)c2cnc(Nc3ccc4c(c3)CNCC4)nc2n1-c1nc(C(C)(C)C)c(Cl)s1 [1.349, 1-(4-(tert-butyl)-5-chlorothiazol-2-yl)-2-isopropyl-6-((1,2,3,4-tetrahydroisoquinolin-7-yl)amino)-1,2-dihydro-3H-pyrazolo[3,4-d]pyrimidin-3-one] |  | 384 nM | 19.9 µM |  | 490 nM
2 | CC(C)(F)c1nc(-n2c3nc(Nc4ccc5c(c4)CCNC5)ncc3c(=O)n2C2CC2)ccc1F [1.2, 2-cyclopropyl-1-(5-fluoro-6-(2-fluoropropan-2-yl)pyridin-2-yl)-6-((1,2,3,4-tetrahydroisoquinolin-6-yl)amino)-1,2-dihydro-3H-pyrazolo[3,4-d]pyrimidin-3-one] | 952 nM | 36 nM | 10.2 µM |  | 3410 nM
3 | CC(C)n1c(=O)c2cnc(Nc3ccc4c(c3)CCNC4)nc2n1-c1ccc(F)c(C(C)(C)O)n1 [1.249, 1-(5-fluoro-6-(2-hydroxypropan-2-yl)pyridin-2-yl)-2-isopropyl-6-((1,2,3,4-tetrahydroisoquinolin-6-yl)amino)-1,2-dihydro-3H-pyrazolo[3,4-d]pyrimidin-3-one] | 230 nM | 16 nM | 20.1 µM |  | 592 nM
4 | CC(C)n1c(=O)c2cnc(Nc3ccc4c(c3)CCNC4)nc2n1-c1csc(C2CC2)n1 [1.464, 1-(2-cyclopropylthiazol-4-yl)-2-isopropyl-6-((1,2,3,4-tetrahydroisoquinolin-6-yl)amino)-1,2-dihydro-3H-pyrazolo[3,4-d]pyrimidin-3-one] |  | 49 nM | 28.8 µM |  | 24600 nM

The next molecules have a lower IC50 [3] than those just listed; values first:

Row | IC50 [1] | IC50 [3] | IC50 [4] | IC50 [5] | Structure (SMILES) | IC50 [2]
5 | 66 nM | 10 nM | 1.54 µM | 285 nM | CC(C)n1c(=O)c2cnc(Nc3ccc4c(c3)CCNC4(C)C)nc2n1-c1cccc(C2(C#N)CC2)n1 [1.45, 1-(6-(6-(1,1-dimethyl-1,2,3,4-tetrahydroisoquinolin-6-ylamino)-2-isopropyl-3-oxo-2,3-dihydro-1H-pyrazolo[3,4-d]pyrimidin-1-yl)pyridin-2-yl)cyclopropanecarbonitrile] | 2180 nM
6 | 320 nM | 9 nM | 5.63 µM |  | CC(C)n1c(=O)c2cnc(Nc3ccc4c(c3)CCNC4)nc2n1-c1cccc(C2(C#N)CC2)n1 [1.43, 1-(6-(2-isopropyl-3-oxo-6-((1,2,3,4-tetrahydroisoquinolin-6-yl)amino)-2,3-dihydro-1H-pyrazolo[3,4-d]pyrimidin-1-yl)pyridin-2-yl)cyclopropane-1-carbonitrile] | 1480 nM
7 | 339 nM | 6 nM | 6.57 µM |  | CC(C)n1c(=O)c2cnc(Nc3ccc4c(c3)CCNC4)nc2n1-c1ccc(F)c(C(C)(C)F)n1 [1.1, 1-(5-fluoro-6-(2-fluoropropan-2-yl)pyridin-2-yl)-2-isopropyl-6-((1,2,3,4-tetrahydroisoquinolin-6-yl)amino)-1,2-dihydro-3H-pyrazolo[3,4-d]pyrimidin-3-one] | 3740 nM
8 | 176 nM | 4 nM | 0.223 µM |  | CCn1c(=O)c2cnc(Nc3ccc4c(c3)CNCC4)nc2n1-c1cccc(C2(C#N)CC2)n1 [1.38, 1-(6-(2-ethyl-3-oxo-6-((1,2,3,4-tetrahydroisoquinolin-7-yl)amino)-2,3-dihydro-1H-pyrazolo[3,4-d]pyrimidin-1-yl)pyridin-2-yl)cyclopropane-1-carbonitrile] | 401 nM
9 |  | 3 nM | 1.17 µM |  | CC(C)n1c(=O)c2cnc(Nc3ccc4c(c3)CNCC4)nc2n1-c1cccc(C2(C#N)CC2)n1 [1.44, 1-(6-(2-isopropyl-3-oxo-6-((1,2,3,4-tetrahydroisoquinolin-7-yl)amino)-2,3-dihydro-1H-pyrazolo[3,4-d]pyrimidin-1-yl)pyridin-2-yl)cyclopropane-1-carbonitrile] | 892 nM
10 |  | 2 nM | 4.2 µM |  | CCn1c(=O)c2cnc(Nc3ccc4c(c3)CNCC4)nc2n1-c1cccc(C2(CF)CC2)n1 [1.86, 2-ethyl-1-(6-(1-(fluoromethyl)cyclopropyl)pyridin-2-yl)-6-((1,2,3,4-tetrahydroisoquinolin-7-yl)amino)-1,2-dihydro-3H-pyrazolo[3,4-d]pyrimidin-3-one] | 685 nM
